We go through one molecule from patent US20240166626A1, “Compounds and Methods for Preventing, Treating, or Ameliorating Airway Disease” (THOMAS JEFFERSON UNIVERSITY, priority 2021, published 2024).

The subject of the assay is mouse airway tissue. The experiment in a line: Measurement of airway contractility in ex vivo mouse lung tissue slices. The procedure: FIGS. 4A-4F: DFPQ inhibits internalization of the β2AR and protects from agonist induced desensitization in cell and tissue models. FIG. 4A: Effect of DFPQ on agonist-promoted internalization of the β2AR. HEK 293 cells stably expressing FLAG-β2AR were pre-incubated with 0.1% DMSO or 10 μM DFPQ for 30 min and then stimulated with the indicated concentrations of ISO for up to 60 min. Cells were fixed and receptor surface expression was measured by ELISA. […] Cells were lysed and cAMP production was measured by ELISA. […] FIG. 4C: Mouse airway tissue were contracted with 1 μM methacholine for 5 min and then incubated overnight with 1 μM ISO±1 μM DFPQ. […] Airway contractility was measured by luminal area of bronchioles by microscopy at various times. […]
Cell culture GLOSENSOR™ cells (Promega) were maintained in Dulbecco's modified Eagle's medium (DMEM) containing 10% fetal bovine serum (FBS) and 200 μg/ml Hygromycin B. […]® ADRB2 cells (DiscoveRx) were maintained with the AssayComplete™ Cell Culture kit (DiscoveRx catalog #92-3107G). […] Cells were read every three minutes for 18 minutes on a PolarStar Optima plate reader (BMG) to establish peak signal. ISO was added to each well to a final concentration of 1 μM, and luminescence was determined in kinetic mode at room temperature (23-25° C.). […] Luminescence was determined at room temperature (23-25° C.) on a PolarStar Optima plate reader (BMG). […]

`Fc1ccc(Nc2nc(NC3CCCCC3)c3ccccc3n2)cc1F` [DFPQ, N^4-cyclohexyl-N^2-(3,4-difluorophenyl)quinazoline-2,4-diamine]: the “ISO mediated reversal of airway contraction on day 2” value (overnight 1 μM ISO + 1 μM DFPQ, relative to control, FIG. 4C) is given as “largely preserved”. The protection from desensitization entry (up to 25 minutes post ISO challenge on day 2, FIG. 4D) is given as “significant protection from desensitization”.
